Source: PMC10138389, “Study of Lipophilicity and ADME Properties of 1,9-Diazaphenothiazines with Anticancer Action” (International Journal of Molecular Sciences, 2023)

How the values were obtained:
[1] = cited from earlier work; for logPTLC, 1,8-Diaza: 1,8-diazaphenothiazines; for logPTLC, 2,7-Diaza: 2,7-diazaphenothiazines; for logPTLC, 3,6-Diaza: 3,6-diazaphenothiazines; for logPTLC, 1,6-Diaza: 1,6-diazaphenothiazines
[2] = experimental lipophilicity by RP-TLC (RM0, logPTLC); format: physicochemical; conditions: for −b (slope of RM = RM0 + bC) / RM0 (relative lipophilicity parameter): RP-TLC; for −b (slope of RM = RM0 + bC): RP 18F254S, acetone/TRIS buffer pH 7.4; for RM0 (relative lipophilicity parameter): extrapolation to zero acetone concentration, TRIS buffer pH 7.4; for chromatographic logP: pH 7.4, RM0 converted with the calibration curve of standards I–V; for logPTLC, 1,9-Diaza: 1,9-diazaphenothiazines, comparison table
Method: In the next stage, experimental measurements of the lipophilicity coefficient were performed with the use of reversed-phase thin-layer chromatography RP-TLC.
The experimental RP-TLC method provided the RM retention parameter (calculated from RF value measurements) using the following equation:RM = log (1/RF − 1)(1)
Then a calibration curve was created using the same measuring conditions. […] The calibration curve was used to convert the values of the relative lipophilicity parameter RM0 of the tested hybrids into the value of the absolute lipophilicity parameter logPTLC.
The equation of the standard curve with which it was possible to convert the relative lipophilicity parameter RM0 into the absolute parameter logPTLC is presented in Figure 2.
The RP-TLC method was used to determine the experimental lipophilicity according to the literature. Modified silica gel RP 18F254S (Merck) was used as the stationary phase and a mixture of tris(hydroxymethyl)aminomethane (TRIS) (0.2 M, buffer pH = 7.4) with acetone as the mobile phase with the range of concentrations from 40 to 70% (v/v) in 5% increments. […] Spots were observed under UV light at λ = 254 nm. Each measurement was performed in triplicate and then the RF values were calculated.

[3] = standards; cited from earlier work
SNB-19 cells = test system: SNB-19 cells; parameters: method as in PMID 33807874; conditions: Annexin V; cited from earlier work
[4] = test system: H3, TP53, CDKN1A, BCL-2, and BAX genes; parameters: method as in PMID 33807874; conditions: RT-QPCR, tested cell lines; cited from earlier work
melanoma C-32 = test system: melanoma C-32; parameters: method as in PMID 31307242, PMID 33807874; conditions: melanoma C-32 cell line; cited from earlier work
breast cancer MDA-MB-231 = test system: breast cancer MDA-MB-231; parameters: method as in PMID 31307242, PMID 33807874; conditions: cited from earlier work
glioblastoma SNB-19 = test system: glioblastoma SNB-19; parameters: method as in PMID 31307242, PMID 33807874; conditions: cited from earlier work

C=CCN1c2cnccc2Sc2cccnc21 [1,8-Diaza B]
logPTLC, 1,8-Diaza [1]: 2.313

CC(CN(C)C)CN1c2ncccc2Sc2cccnc21 (stereo not shown) [Compound 8]
−b (slope of RM = RM0 + bC) [2]: 0.0228
RM0 (relative lipophilicity parameter) [2]: 1.8961
chromatographic logP [2]: 2.17

C#CCN1c2ccncc2Sc2ccncc21 [2,7-Diaza C]
logPTLC, 2,7-Diaza [1]: 1.654

CC(=O)c1ccc(Br)cc1 [III, 4-bromoacetophenone, reference compound]
log P TLC (logPlit.) [3]: 2.43 [23]
−b (slope of RM = RM0 + bC) [2]: 0.033
RM0 (relative lipophilicity parameter) [2]: 2.281

c1cnc2c(c1)Nc1ccncc1S2 [3,6-Diaza A, 10H-3,6-diazaphenothiazine]
logPTLC, 3,6-Diaza [1]: 0.952

CN(C)CCCN1c2cnccc2Sc2cccnc21 [1,8-Diaza D]
logPTLC, 1,8-Diaza [1]: 1.832

C#CCN1c2ncccc2Sc2cccnc21 [Compound 4]
early and late cell apoptosis populations (SNB-19 cells): slight increase
expression of the CDKN1A gene [4]: enhanced
expression of the H3 gene [4]: reduced
expression of the TP53 gene [4]: reduced
logPTLC, 1,9-Diaza [2]: 1.747
−b (slope of RM = RM0 + bC) [2]: 0.0195
RM0 (relative lipophilicity parameter) [2]: 1.4720
chromatographic logP [2]: 1.75

C=CCN1c2ncccc2Sc2cccnc21 [Compound 3]
logPTLC, 1,9-Diaza [2]: 1.682
−b (slope of RM = RM0 + bC) [2]: 0.0278
RM0 (relative lipophilicity parameter) [2]: 1.4052
chromatographic logP [2]: 1.68

C#CCN1c2cccnc2Sc2cccnc21 [1,6-Diaza C]
logPTLC, 1,6-Diaza [1]: 1.574

C=CCN1c2ccncc2Sc2ccncc21 [2,7-Diaza B]
logPTLC, 2,7-Diaza [1]: 1.940

CN1CCCCC1CCN1c2ncccc2Sc2cccnc21 (stereo not shown) [Compound 11]
−b (slope of RM = RM0 + bC) [2]: 0.0211
RM0 (relative lipophilicity parameter) [2]: 1.9988
chromatographic logP [2]: 2.27

CN(C)CCCN1c2ccncc2Sc2ccncc21 [2,7-Diaza D]
logPTLC, 2,7-Diaza [1]: 1.940

N.N.[Cl][Pt][Cl] [cisplatin, reference compound]
IC50 (melanoma C-32): 13.2 µM

c1cnc2c(c1)Sc1cccnc1N2 [Compound 1, 10H-1,9-diazaphenothiazine]
anticancer activity against other lines (breast cancer MDA-MB-231): inactive
logPTLC, 1,9-Diaza [2]: 1.476
−b (slope of RM = RM0 + bC) [2]: 0.0205
RM0 (relative lipophilicity parameter) [2]: 1.1970
chromatographic logP [2]: 1.48
anticancer activity against other lines (glioblastoma SNB-19): inactive
IC50 (melanoma C-32): 3.83 µM

c1cnc2c(c1)Nc1ncccc1S2 [1,6-Diaza A, 10H-1,6-diazaphenothiazine]
logPTLC, 1,6-Diaza [1]: 2.316

CN(C)CCCN1c2ccncc2Sc2ncccc21 [3,6-Diaza D]
logPTLC, 3,6-Diaza [1]: 1.404

CN1c2ncccc2Sc2cccnc21 [Compound 2]
−b (slope of RM = RM0 + bC) [2]: 0.0192
RM0 (relative lipophilicity parameter) [2]: 1.3850
chromatographic logP [2]: 1.66

O=C(c1ccccc1)c1ccccc1 [IV, benzophenone, reference compound]
−b (slope of RM = RM0 + bC) [2]: 0.034

c1ccc2cc3ccccc3cc2c1 [V, anthracene, reference compound]
log P TLC (logPlit.) [3]: 5.53 [22]
−b (slope of RM = RM0 + bC) [2]: 0.044
RM0 (relative lipophilicity parameter) [2]: 3.588

c1cnc2c(c1)Sc1cccnc1N2CCN1CCCC1 [Compound 9]
−b (slope of RM = RM0 + bC) [2]: 0.0123
RM0 (relative lipophilicity parameter) [2]: 1.9434
chromatographic logP [2]: 2.21

C#CCN1c2ccncc2Sc2ncccc21 [3,6-Diaza C]
logPTLC, 3,6-Diaza [1]: 1.342

c1cc2c(cn1)Nc1ccncc1S2 [2,7-Diaza A]
logPTLC, 2,7-Diaza [1]: 1.540

CN(C)CCCN1c2ncccc2Sc2cccnc21 [Compound 6]
logPTLC, 1,9-Diaza [2]: 2.080
−b (slope of RM = RM0 + bC) [2]: 0.0170
RM0 (relative lipophilicity parameter) [2]: 1.8096
chromatographic logP [2]: 2.08

c1ccc(CN2c3ncccc3Sc3cccnc32)cc1 [Compound 5, 10-benzyl-1,9-diazaphenothiazine]
−b (slope of RM = RM0 + bC) [2]: 0.0205
RM0 (relative lipophilicity parameter) [2]: 1.7877
chromatographic logP [2]: 2.06

c1cnc2c(c1)Sc1cccnc1N2CCN1CCCCC1 [Compound 10]
−b (slope of RM = RM0 + bC) [2]: 0.0214
RM0 (relative lipophilicity parameter) [2]: 1.9781
chromatographic logP [2]: 2.25

CC(=O)Nc1ccccc1 [I, acetanilide, reference compound]
log P TLC (logPlit.) [3]: 1.21 [22]
−b (slope of RM = RM0 + bC) [2]: 0.018
RM0 (relative lipophilicity parameter) [2]: 1.011

C=CCN1c2cccnc2Sc2cccnc21 [1,6-Diaza B]
logPTLC, 1,6-Diaza [1]: 3.008

CC(=O)c1ccccc1 [II, acetophenone, reference compound]
−b (slope of RM = RM0 + bC) [2]: 0.019

CCN(CC)CCN1c2ncccc2Sc2cccnc21 [Compound 7]
early and late cell apoptosis populations (SNB-19 cells): slight increase
expression of the CDKN1A gene [4]: enhanced
expression of the H3 gene [4]: reduced
expression of the TP53 gene [4]: reduced
−b (slope of RM = RM0 + bC) [2]: 0.0180
RM0 (relative lipophilicity parameter) [2]: 1.7934
chromatographic logP [2]: 2.06

c1cnc2c(c1)Sc1ccncc1N2 [1,8-Diaza A]
logPTLC, 1,8-Diaza [1]: 1.759

C#CCN1c2cnccc2Sc2cccnc21 [1,8-Diaza C]
logPTLC, 1,8-Diaza [1]: 2.186

C=CCN1c2ccncc2Sc2ncccc21 [3,6-Diaza B]
logPTLC, 3,6-Diaza [1]: 1.329

CN(C)CCCN1c2cccnc2Sc2cccnc21 [1,6-Diaza D]
logPTLC, 1,6-Diaza [1]: 1.156
